The target of data set [1] is T1, hPPARalpha (Homo sapiens, UniProt Q07869).
T1 construct: expressed in transfected cells; host or cells: COS-7 (monkey kidney fibroblasts)
T1 sequence (Q07869 239-466 limits assumed): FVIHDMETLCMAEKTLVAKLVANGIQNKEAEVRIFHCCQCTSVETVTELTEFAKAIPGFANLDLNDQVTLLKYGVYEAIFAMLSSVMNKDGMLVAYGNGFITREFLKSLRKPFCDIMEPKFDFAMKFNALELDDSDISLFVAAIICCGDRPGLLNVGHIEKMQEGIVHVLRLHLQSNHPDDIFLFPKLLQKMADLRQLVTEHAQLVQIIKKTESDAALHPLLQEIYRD
The experiment in a line: PPAR activation: Gal4-hPPARα chimera luciferase transactivation in COS-7 cells, Method 1. It counts as cell-based. The following applies: COS-7, 24 h; for Emax: maximum percentage response relative to the reference phenofibric acid, read-out: hPPARalpha % max. The procedure: (§1) The activation of the PPARs was evaluated in vitro on a line of monkey kidney fibroblasts (COS-7) by measuring the transcriptional activity of chimeras constituted of the DNA binding domain of the Gal4 transcription factor of yeast and the ligand binding domain of the various PPARs. The compounds were tested at doses between 10^−5 and […] on the chimeras Gal4-PPARα, γ or δ, and the corresponding EC50 values were determined.
(§2) The COS-7 cells were obtained from the ATCC and were cultivated in DMEM medium supplemented with 10% (v/v) of fetal calf serum, 100 U/ml of penicillin (Gibco, Paisley, UK) and 2 mM of L-glutamine (Gibco, Paisley, UK). The cells were incubated at 37° C. in a humid atmosphere containing 5% CO2.
(§3) The plasmids Gal4(RE)_TkpGL3, pGal4-hPPARα, pGal4-hPPARγ, pGal4-hPPARδ and pGal4-φ are described in the literature (Raspe E et al., 1999). The constructs pGal4-hPPARα, pGal4-hPPARγ and pGal4-hPPARδ were obtained by cloning DNA fragments amplified by PCR corresponding to the DEF domains of the human nuclear receptors PPARα, PPARγ and PPARδ in the pGal4-φ vector.
(§4) The COS-7 cells in suspension were transfected with 150 ng of DNA per well, with a pGal4-PPAR/Gal4(RE)_TkpGL3 ratio of 1/10, in the presence of 10% fetal calf serum. The cells were seeded in 96-well plates (4×10^4 cells/well) and then incubated at 37° C. for 24 hours. Activation with the test compounds is carried out for 24 h at 37° C. in serum-free medium. At the end of the experiment, the cells were lysed and the luciferase activity was determined using the Steady-Lite™ HTS (Perkin Elmer) following the supplier's recommendations.

The target of data set [2] is T2, hPPARgamma (Homo sapiens, UniProt P37231).
T2 construct: expressed in transfected cells; host or cells: COS-7 (monkey kidney fibroblasts)
T2 sequence (P37231 238-503 limits assumed): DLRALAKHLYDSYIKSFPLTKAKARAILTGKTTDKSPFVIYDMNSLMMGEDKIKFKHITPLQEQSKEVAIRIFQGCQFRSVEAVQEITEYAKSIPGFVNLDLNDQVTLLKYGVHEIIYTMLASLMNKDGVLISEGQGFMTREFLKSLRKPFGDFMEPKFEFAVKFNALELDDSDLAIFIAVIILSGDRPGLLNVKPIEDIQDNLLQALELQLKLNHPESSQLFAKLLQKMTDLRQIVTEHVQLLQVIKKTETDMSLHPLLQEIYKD
The experiment in a line: PPAR activation: Gal4-hPPARγ chimera luciferase transactivation in COS-7 cells, Method 1. As to conditions: COS-7, 24 h; for Emax: maximum percentage response relative to the reference rosiglitazone, read-out: hPPARgamma % max. It counts as cell-based. The procedure: as §1, §2, §3, §4

Data set [3] has as its target T3, hPPARdelta (Homo sapiens, UniProt Q03181).
T3 construct: expressed in transfected cells; host or cells: COS-7 (monkey kidney fibroblasts)
T3 sequence (Q03181 211-439 limits assumed): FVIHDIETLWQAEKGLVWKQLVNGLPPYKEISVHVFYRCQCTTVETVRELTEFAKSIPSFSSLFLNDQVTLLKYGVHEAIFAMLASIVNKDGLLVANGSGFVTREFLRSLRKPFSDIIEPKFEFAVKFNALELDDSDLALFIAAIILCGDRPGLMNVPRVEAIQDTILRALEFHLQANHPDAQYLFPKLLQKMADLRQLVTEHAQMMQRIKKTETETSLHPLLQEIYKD
The experiment in a line: PPAR activation: Gal4-hPPARδ chimera luciferase transactivation in COS-7 cells, Method 1. It counts as cell-based. The following applies: COS-7, 24 h; for Emax: maximum percentage response relative to the reference GW501516, read-out: hPPARdelta % max. The procedure:
as §1, §2, §3, §4

For data set [4], the target named is T2, hPPARgamma. The experiment in a line: PPAR activation: Gal4-hPPARγ chimera luciferase transactivation in COS-7 cells, Method 2. Type of data set: cell-based. The following applies: COS-7, 24 h, Method 2; for Emax: maximum percentage response relative to the reference rosiglitazone, read-out: hPPARgamma % max; for EC50: 1% Ultroser, read-out: hPPARgamma EC50. Here is the method:
The activation of the PPARs was evaluated in vitro on a line of monkey kidney fibroblasts (COS-7) by measuring the transcriptional activity of chimeras constituted of the DNA binding domain of the Gal4 transcription factor of yeast and the ligand binding domain of the various PPARs.
Only the application of the transfection stage is slightly different. The details are presented below.
(§5) The adherent COS-7 cells are transfected with 40 μg of DNA per 225 cm^2 dish, with a pGal4-PPAR/Gal4(RE)_TkpGL3 ratio of 1/10, in the presence of 10% fetal calf serum. The cells are then detached and seeded in the absence of serum in 384-well plates (2×10^4 cells/well) and incubated for 4 hours at 37° C. The compounds are then diluted in a 96-well plate and transferred to the 384-well plate. Activation with the test compounds is carried out for an additional 24 h at 37° C. in the presence of 1% of Ultroser™ lipid-free synthetic serum (Biosepra). These last 2 stages are automated using a Genesis Freedom 200™ station (Tecan). At the end of the experiment, the cells are lysed and the luciferase activity is determined using the Steady-Lite™ HTS (Perkin Elmer) following the supplier's recommendations.

In data set [5] the target is T1, hPPARalpha. The experiment in a line: PPAR activation: Gal4-hPPARα chimera luciferase transactivation in COS-7 cells, Method 2. It counts as cell-based. As to conditions: COS-7, 24 h; for EC50: 1% Ultroser; for Emax: maximum percentage response relative to the reference phenofibric acid, read-out: hPPARalpha % max. The procedure: as §1
(§6) The principle, the cells and the plasmids used for example 5 were also employed in this example. Only the application of the transfection stage is slightly different. The details are presented below.
as §5

Data set [6] deals with T3, hPPARdelta. The experiment in a line: PPAR activation: Gal4-hPPARδ chimera luciferase transactivation in COS-7 cells, Method 2. As to conditions: COS-7, 24 h; for EC50: 1% Ultroser; for Emax: maximum percentage response relative to the reference GW501516, read-out: hPPARdelta % max. It counts as cell-based. The procedure:
as §1, §6, §5

Take `CCC(Oc1ccc(CCC(=O)c2ccc(-c3ccc(C(F)(F)F)cc3)s2)cc1F)C(=O)O` (stereo not drawn) [Compound 29, 2-(2-fluoro-4-(3-oxo-3-(5-(4-(trifluoromethyl)phenyl)thien-2-yl)-propyl)phenoxy)butanoic acid]: the melting point (commonly the temperature, or range, at which the solid turns liquid) is 119 to 120 °C. Further, at hPPARalpha [1], the EC50 (in general, the concentration needed to bring the measured effect to its halfway point) was determined as 2 nM and the Emax was 56%. At hPPARgamma [2], a half-maximal effect (EC50) was put at 1270 nM and the Emax stood at 65%. Moreover, on hPPARdelta [3], the EC50 was 37 nM and the Emax turned out to be 88%.

As for `CCC(Oc1ccc(CCC(O)c2ccc(-c3ccc(C(F)(F)F)cc3)s2)cc1F)C(=O)O` (stereo not drawn) [Compound 30, 2-(2-fluoro-4-(3-hydroxy-3-(5-(4-(trifluoromethyl)phenyl)thien-2-yl)propyl)phenoxy)butanoic acid], the Emax at hPPARgamma [4] was 45%; on hPPARalpha [5] it was 51%; on hPPARdelta [6], 80%. In addition, the half-maximal effective concentration (EC50) at hPPARgamma [4] is 3930 nM; on hPPARalpha [5] it was 50 nM; at hPPARdelta [6] it was 1530 nM.

Regarding `CC(C)(Oc1ccc(CCC(=NO)c2ccc(-c3ccc(C(F)(F)F)cc3)s2)c(Cl)c1Cl)C(=O)O` (mixture of isomers) [Compound 49, 2-(2,3-dichloro-4-(3-(hydroxyimino)-3-(5-(4-(trifluoromethyl)-phenyl)thien-2-yl)propyl)phenoxy)-2-methylpropanoic acid], the melting point fell in the range of 135 to 136 °C. Besides, at hPPARalpha [1], a half-maximal response (EC50) required 43 nM and the Emax was found to be 46%. Besides, at hPPARgamma [2], the EC50 came out at 660 nM and the Emax was 24%. Moreover, on hPPARdelta [3], the EC50 worked out at 45 nM and the Emax came to 93%.

`CC(C)(Oc1ccc(CCC(=O)c2ccc(-c3ccc(C(F)(F)F)cc3)s2)cc1F)C(=O)O` [Compound 23, 2-(2-fluoro-4-(3-oxo-3-(5-(4-(trifluoromethyl)phenyl)thien-2-yl)propyl)phenoxy)-2-methylpropanoic acid] gave a melting point of 150 to 151 °C. Moreover, the Emax on hPPARalpha [1] came to 48%. Further, at hPPARgamma [2], the EC50 amounted to 400 nM and the Emax worked out at 49%. For the same compound, on hPPARdelta [3], a half-maximal effect (EC50) was put at 16 nM and the Emax was found to be 95%.

For `O=C(O)COc1ccc(CCC(OCc2ccccc2)c2ccc(-c3ccc(C(F)(F)F)cc3)s2)cc1F` (stereo not drawn) [Compound 27, 2-(4-(3-(benzyloxy)-3-(5-(4-(trifluoromethyl)phenyl)thien-2-yl)-propyl)-2-fluorophenoxy)acetic acid], the EC50 on hPPARalpha [1] is 1310 nM; at hPPARgamma [2], 2820 nM; on hPPARdelta [3], 589 nM. For the same compound, the values for the Emax on hPPARalpha [1], at hPPARgamma [2] and on hPPARdelta [3] were 47%, 30% and 77%, respectively.

Compound `O=C(O)COc1ccc(CCC(=O)c2ccc(-c3ccc(C(F)(F)F)cc3)s2)cc1Br` [Compound 34, 2-(2-bromo-4-(3-oxo-3-(5-(4-(trifluoromethyl)phenyl)thien-2-yl)propyl)phenoxy)acetic acid] had a melting point of 180 to 182 °C. In addition, at hPPARalpha [1], the EC50 was 60 nM and the Emax turned out to be 61%. Also, on hPPARgamma [2], the Emax amounted to 37%. In addition, on hPPARdelta [3], a half-maximal effect (EC50) was put at 114 nM and the Emax came to 95%.

`CC(C)(Oc1ccc(CCC(=O)c2ccc(-c3ccc(C(F)(F)F)cc3)s2)c(Cl)c1)C(=O)O` [Compound 21, 2-(3-chloro-4-(3-oxo-3-(5-(4-(trifluoromethyl)phenyl)thien-2-yl)-propyl)phenoxy)-2-methylpropanoic acid] came in with a melting point of 104 to 106 °C. On hPPARalpha [1], the half-maximal effective concentration (EC50) was determined as 17 nM and the Emax stood at 50%. On hPPARgamma [2], the concentration for a half-maximal effect (EC50) stood at 80 nM and the Emax amounted to 63%. In addition, at hPPARdelta [3], the EC50 is 8 nM and the Emax was determined as 97%.

`CCOC(CCc1ccc(OC(C)(C)C(=O)O)c(Cl)c1Cl)c1ccc(-c2ccc(C(F)(F)F)cc2)s1` (stereo not drawn) [Compound 41, 2-(2,3-dichloro-4-(3-ethoxy-3-(5-(4-(trifluoromethyl)phenyl)thien-2-yl)propyl)phenoxy)-2-methylpropanoic acid]: the Emax on hPPARgamma [4] came to 36%; on hPPARalpha [5], 49%; at hPPARdelta [6] it was 76%. In addition, the concentration giving a half-maximal response (EC50) at hPPARgamma [4] was found to be 1490 nM; on hPPARalpha [5] it was 610 nM; at hPPARdelta [6], 10 nM.

In the case of `CC(C)(Oc1ccc(CCC(OCc2ccc(I)cc2)c2ccc(-c3ccc(C(F)(F)F)cc3)s2)c(Cl)c1Cl)C(=O)O` (stereo not drawn) [Compound 6, 2-(4-(3-(4-iodobenzyloxy)-3-(5-(4-(trifluoromethyl)phenyl)thien-2-yl)propyl)-2,3-dichlorophenoxy)-2-methylpropanoic acid], the Emax was found to be 55% on hPPARgamma [4], 41% on hPPARalpha [5] and 92% on hPPARdelta [6]. Further, the EC50 at hPPARgamma [4] was determined as 4110 nM; at hPPARalpha [5] it was 7860 nM; at hPPARdelta [6], 530 nM.

For the compound `CCC(Oc1ccc(CCC(OCc2ccccc2)c2ccc(-c3ccc(C(F)(F)F)cc3)s2)cc1F)C(=O)O` (stereo not drawn) [Compound 70, 2-(4-(3-(benzyloxy)-3-(5-(4-(trifluoromethyl)phenyl)thien-2-yl)propyl)-2-fluorophenoxy)butanoic acid], the EC50 came out at 227 nM on hPPARalpha [1], 970 nM on hPPARgamma [2] and 216 nM at hPPARdelta [3]. The Emax on hPPARalpha [1] was 47%; at hPPARgamma [2], 56%; at hPPARdelta [3] it was 67%.

Consider `CC(C)(Oc1ccc(CCC(OCC2CCCCC2)c2ccc(-c3ccc(C(F)(F)F)cc3)s2)c(Cl)c1Cl)C(=O)O` (stereo not drawn) [Compound 42, 2-(2,3-dichloro-4-(3-(cyclohexylmethoxy)-3-(5-(4-(trifluoromethyl)phenyl)thien-2-yl)propyl)phenoxy)-2-methylpropanoic acid], for which the Emax on hPPARgamma [4] was 47%; on hPPARalpha [5] it was 28%; on hPPARdelta [6] it was 82.1%. Besides, the EC50 on hPPARgamma [4] was 890 nM; at hPPARalpha [5], 2000 nM; on hPPARdelta [6], 260 nM.

Values taken from patent publication US8088819B2, “Derivatives of substituted 3-phenyl-1-(phenylthienyl)propan-1-ones and of 3-phenyl-1-(phenylfuranyl) propan-1-ones, preparation and use” (priority 2006, dated 2012).
